# Laboratory results taken from ChEMBL document CHEMBL4813977, “Discovery of potent colony-stimulating factor 1 receptor inhibitors by replacement of hinge-binder moieties” (Eur J Med Chem, 2021).
# The source made the active and inactive calls. The rule behind the calls is not given here.
# Key:
# [1] = target: Tyrosine-protein kinase ABL1 (Homo sapiens) (UniProt P00519); experiment: Inhibition of human ABL1 at 0.1 uM using EAIYAAPFAKKK as substrate in presence of [gamma-33P]-ATP by radiometric assay relative to control
# [2] = target: ALK tyrosine kinase receptor (Homo sapiens) (UniProt Q9UM73); experiment: Inhibition of human ALK at 0.1 uM using poly[Glu:Tyr] (4:1) as substrate in presence of [gamma-33P]-ATP by radiometric assay relative to control
# [3] = target: Serine/threonine-protein kinase B-raf (Homo sapiens) (UniProt P15056); experiment: Inhibition of human BRAF at 0.1 uM using MEK1 (K97R) as substrate in presence of [gamma-33P]-ATP by radiometric assay relative to control
# [4] = target: Epidermal growth factor receptor (Homo sapiens) (UniProt P00533); experiment: Inhibition of human EGFR at 0.1 uM using poly[Glu:Tyr] (4:1) as substrate in presence of [gamma-33P]-ATP by radiometric assay relative to control
# [5] = target: Mitogen-activated protein kinase 1 (Homo sapiens) (UniProt P28482); experiment: Inhibition of human ERK2 at 0.1 uM using MBP as substrate in presence of [gamma-33P]-ATP by radiometric assay relative to control
# [6] = target: Tyrosine-protein kinase JAK2 (Homo sapiens) (UniProt O60674); experiment: Inhibition of human JAK2 at 0.1 uM using poly[Glu:Tyr] (4:1) as substrate in presence of [gamma-33P]-ATP by radiometric assay relative to control
# [7] = target: T1, Tyrosine-protein kinase JAK3 (Homo sapiens) (UniProt P52333); experiment: Inhibition of human JAK3 at 0.1 uM using GGEEEEYFELVKKKK as substrate in presence of [gamma-33P]-ATP by radiometric assay relative to control
# T1 sequence (whole entry): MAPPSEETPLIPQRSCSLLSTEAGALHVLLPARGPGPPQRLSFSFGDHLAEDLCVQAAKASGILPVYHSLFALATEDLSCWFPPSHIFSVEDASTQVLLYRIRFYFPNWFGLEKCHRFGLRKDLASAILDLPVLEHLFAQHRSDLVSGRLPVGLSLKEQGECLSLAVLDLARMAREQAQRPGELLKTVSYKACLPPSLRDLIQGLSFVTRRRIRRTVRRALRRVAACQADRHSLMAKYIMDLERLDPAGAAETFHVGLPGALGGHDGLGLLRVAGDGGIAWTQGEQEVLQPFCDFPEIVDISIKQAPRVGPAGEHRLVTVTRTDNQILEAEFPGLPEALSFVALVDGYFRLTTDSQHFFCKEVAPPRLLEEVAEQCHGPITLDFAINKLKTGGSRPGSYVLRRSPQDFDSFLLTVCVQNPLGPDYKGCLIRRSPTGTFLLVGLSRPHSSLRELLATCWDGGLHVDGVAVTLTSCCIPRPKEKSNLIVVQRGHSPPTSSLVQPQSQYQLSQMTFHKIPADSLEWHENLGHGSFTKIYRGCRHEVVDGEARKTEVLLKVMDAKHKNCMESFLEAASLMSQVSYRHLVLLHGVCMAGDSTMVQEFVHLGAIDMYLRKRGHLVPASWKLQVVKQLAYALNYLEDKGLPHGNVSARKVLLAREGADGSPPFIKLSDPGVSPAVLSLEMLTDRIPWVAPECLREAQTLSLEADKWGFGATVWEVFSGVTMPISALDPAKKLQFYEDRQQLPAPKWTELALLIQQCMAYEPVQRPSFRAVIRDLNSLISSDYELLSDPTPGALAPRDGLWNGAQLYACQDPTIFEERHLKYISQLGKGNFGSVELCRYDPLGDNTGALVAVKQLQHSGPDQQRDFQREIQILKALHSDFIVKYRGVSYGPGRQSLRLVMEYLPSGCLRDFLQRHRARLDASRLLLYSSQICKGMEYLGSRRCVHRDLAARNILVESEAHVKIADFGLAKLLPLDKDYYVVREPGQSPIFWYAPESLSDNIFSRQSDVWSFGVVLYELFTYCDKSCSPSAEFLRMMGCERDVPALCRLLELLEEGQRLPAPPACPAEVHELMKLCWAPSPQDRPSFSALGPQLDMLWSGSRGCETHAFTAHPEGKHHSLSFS
# [8] = target: Tyrosine-protein kinase Lck (Homo sapiens) (UniProt P06239); experiment: Inhibition of human LCK at 0.1 uM using poly[Glu:Tyr] (4:1) as substrate jn presence of [gamma-33P]-ATP by radiometric assay relative to control
# [9] = target: Tyrosine-protein kinase Lyn (Homo sapiens) (UniProt P07948); experiment: Inhibition of human LYN at 0.1 uM using poly[Glu:Tyr] (4:1) as substrate in presence of [gamma-33P]-ATP by radiometric assay relative to control
# [10] = target: Dual specificity mitogen-activated protein kinase kinase 1 (Homo sapiens) (UniProt Q02750); experiment: Inhibition of human MEK1 at 0.1 uM using ERK2 (K52R) as substrate in presence of [gamma-33P]-ATP by radiometric assay relative to control
# Homo sapiens = organism: Homo sapiens; experiment: Inhibition of human PKA at 0.1 uM using LCGRTGRRNSI as substrate in presence of [gamma-33P]-ATP by radiometric assay relative to control
# [11] = target: Non-receptor tyrosine-protein kinase TYK2 (Homo sapiens) (UniProt P29597); experiment: Inhibition of human TYK2 at 0.1 uM using KKSRGDYMTMQIG as substrate in presence of [gamma-33P]-ATP by radiometric assay relative to control
# [12] = target: T2, Macrophage colony-stimulating factor 1 receptor (Mus musculus) (UniProt P09581); experiment: Inhibition of CSF1R phosphorylation in mouse RAW 264.7 cells at 10 to 100 nM preincubated for 5 hrs followed by CSF stimulation for 10 mins by Western blot analysis; assay type: cell-based; conditions: RAW264.7, dose 10-100 nM, time 310.0 min
# T2 sequence (whole entry): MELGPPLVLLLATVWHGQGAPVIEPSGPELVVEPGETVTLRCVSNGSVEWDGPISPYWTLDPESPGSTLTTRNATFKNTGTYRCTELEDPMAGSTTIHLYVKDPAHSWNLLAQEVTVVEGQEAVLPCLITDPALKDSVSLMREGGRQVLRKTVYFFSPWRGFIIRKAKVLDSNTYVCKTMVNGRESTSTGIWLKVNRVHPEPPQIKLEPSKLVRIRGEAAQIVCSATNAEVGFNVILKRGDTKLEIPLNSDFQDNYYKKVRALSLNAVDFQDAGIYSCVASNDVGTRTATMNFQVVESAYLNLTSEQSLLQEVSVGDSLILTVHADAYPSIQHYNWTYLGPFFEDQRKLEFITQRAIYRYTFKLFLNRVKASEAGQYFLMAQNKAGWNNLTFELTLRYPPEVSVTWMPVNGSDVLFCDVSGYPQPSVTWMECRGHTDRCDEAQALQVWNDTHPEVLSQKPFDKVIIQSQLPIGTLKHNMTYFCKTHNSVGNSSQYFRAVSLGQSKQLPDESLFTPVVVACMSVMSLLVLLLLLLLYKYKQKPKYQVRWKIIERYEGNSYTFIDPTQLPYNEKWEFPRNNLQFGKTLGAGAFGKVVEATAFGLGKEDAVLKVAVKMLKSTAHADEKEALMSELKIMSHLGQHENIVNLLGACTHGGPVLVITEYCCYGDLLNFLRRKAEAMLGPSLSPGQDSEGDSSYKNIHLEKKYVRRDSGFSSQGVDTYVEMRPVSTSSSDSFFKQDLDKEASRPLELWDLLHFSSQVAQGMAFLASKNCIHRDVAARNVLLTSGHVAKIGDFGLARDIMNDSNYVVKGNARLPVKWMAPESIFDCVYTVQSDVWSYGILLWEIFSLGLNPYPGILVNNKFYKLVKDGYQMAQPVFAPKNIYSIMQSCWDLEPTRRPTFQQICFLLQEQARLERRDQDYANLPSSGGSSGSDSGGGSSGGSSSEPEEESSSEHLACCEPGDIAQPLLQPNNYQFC
# [13] = target: Mast/stem cell growth factor receptor Kit (Homo sapiens) (UniProt P10721); conditions: dose 10.0 nM
# Description: Inhibition of human c-KIT at 10 nM using poly[Glu:Tyr] (4:1) as substrate in presence of [gamma-33P]-ATP by radiometric assay relative to control
# [14] = target: Mast/stem cell growth factor receptor Kit (Homo sapiens) (UniProt P10721); conditions: dose 100.0 nM
# Description: Inhibition of human c-KIT at 100 nM using poly[Glu:Tyr] (4:1) as substrate in presence of [gamma-33P]-ATP by radiometric assay relative to control
# [15] = target: Receptor-type tyrosine-protein kinase FLT3 (Homo sapiens) (UniProt P36888); conditions: dose 10.0 nM
# [16] = target: Receptor-type tyrosine-protein kinase FLT3 (Homo sapiens) (UniProt P36888); conditions: dose 100.0 nM
# [17] = target: Macrophage colony-stimulating factor 1 receptor (Homo sapiens) (UniProt P07333); conditions: dose 10.0 nM
# Description: Inhibition of human CSF1R at 10 nM using poly[Glu:Tyr] (4:1) as substrate in presence of [gamma-33P]-ATP by radiometric assay relative to control
# [18] = target: Macrophage colony-stimulating factor 1 receptor (Homo sapiens) (UniProt P07333); conditions: dose 100.0 nM
# Description: Inhibition of human CSF1R at 100 nM using poly[Glu:Tyr] (4:1) as substrate in presence of [gamma-33P]-ATP by radiometric assay relative to control
# Sequence of Macrophage colony-stimulating factor 1 receptor (Homo sapiens) (P07333 whole entry): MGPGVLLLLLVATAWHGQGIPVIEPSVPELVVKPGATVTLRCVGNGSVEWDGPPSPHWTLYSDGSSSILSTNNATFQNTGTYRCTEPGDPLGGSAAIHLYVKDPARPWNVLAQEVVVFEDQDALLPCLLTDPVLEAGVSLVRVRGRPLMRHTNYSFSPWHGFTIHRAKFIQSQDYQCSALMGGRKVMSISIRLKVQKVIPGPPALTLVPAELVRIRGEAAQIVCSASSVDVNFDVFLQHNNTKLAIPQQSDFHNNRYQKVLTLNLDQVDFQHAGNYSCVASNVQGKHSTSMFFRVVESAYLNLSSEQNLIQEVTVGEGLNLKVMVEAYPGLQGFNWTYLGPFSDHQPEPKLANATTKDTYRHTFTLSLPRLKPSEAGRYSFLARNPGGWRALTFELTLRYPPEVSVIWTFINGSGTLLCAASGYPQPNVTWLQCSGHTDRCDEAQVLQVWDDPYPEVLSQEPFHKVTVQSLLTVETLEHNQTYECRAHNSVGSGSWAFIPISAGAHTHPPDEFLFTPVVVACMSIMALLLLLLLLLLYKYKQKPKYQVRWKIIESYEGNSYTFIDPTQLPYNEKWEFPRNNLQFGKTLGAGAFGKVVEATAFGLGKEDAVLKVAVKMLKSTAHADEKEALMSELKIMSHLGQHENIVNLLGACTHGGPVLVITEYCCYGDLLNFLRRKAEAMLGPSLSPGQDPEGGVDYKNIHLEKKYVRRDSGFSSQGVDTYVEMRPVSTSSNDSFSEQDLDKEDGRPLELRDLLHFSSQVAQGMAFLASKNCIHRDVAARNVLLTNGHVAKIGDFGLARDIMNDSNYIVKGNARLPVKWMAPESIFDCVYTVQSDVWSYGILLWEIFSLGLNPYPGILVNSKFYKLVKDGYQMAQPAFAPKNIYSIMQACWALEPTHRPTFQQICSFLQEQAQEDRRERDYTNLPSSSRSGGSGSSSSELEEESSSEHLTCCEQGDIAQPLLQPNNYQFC
# Sequence of Mast/stem cell growth factor receptor Kit (Homo sapiens) (P10721 whole entry): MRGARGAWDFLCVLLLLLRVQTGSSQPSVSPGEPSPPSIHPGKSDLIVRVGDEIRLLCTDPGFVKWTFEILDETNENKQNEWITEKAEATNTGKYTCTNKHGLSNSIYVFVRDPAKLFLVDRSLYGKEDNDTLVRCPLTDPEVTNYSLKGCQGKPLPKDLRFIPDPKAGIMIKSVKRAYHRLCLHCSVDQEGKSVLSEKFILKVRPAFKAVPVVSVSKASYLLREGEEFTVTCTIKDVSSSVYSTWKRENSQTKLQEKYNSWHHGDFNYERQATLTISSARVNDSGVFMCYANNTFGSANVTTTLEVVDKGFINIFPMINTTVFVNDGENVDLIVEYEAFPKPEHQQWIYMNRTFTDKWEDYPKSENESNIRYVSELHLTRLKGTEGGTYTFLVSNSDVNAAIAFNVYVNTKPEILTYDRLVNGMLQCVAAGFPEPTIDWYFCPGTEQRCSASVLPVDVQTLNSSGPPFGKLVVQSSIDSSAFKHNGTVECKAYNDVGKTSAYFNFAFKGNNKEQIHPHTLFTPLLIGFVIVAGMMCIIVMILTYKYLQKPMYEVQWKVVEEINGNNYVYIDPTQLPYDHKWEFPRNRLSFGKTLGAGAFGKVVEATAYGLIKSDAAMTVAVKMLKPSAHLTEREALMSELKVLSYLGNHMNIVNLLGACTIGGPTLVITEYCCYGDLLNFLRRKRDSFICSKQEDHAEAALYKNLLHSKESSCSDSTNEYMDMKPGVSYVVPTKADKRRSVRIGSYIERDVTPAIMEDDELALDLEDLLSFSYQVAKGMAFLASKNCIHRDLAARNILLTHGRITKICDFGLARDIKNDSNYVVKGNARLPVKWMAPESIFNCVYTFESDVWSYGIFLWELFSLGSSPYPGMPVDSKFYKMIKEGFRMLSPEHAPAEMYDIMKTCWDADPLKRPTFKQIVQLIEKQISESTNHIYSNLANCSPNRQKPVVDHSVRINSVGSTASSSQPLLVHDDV
# Sequence of Receptor-type tyrosine-protein kinase FLT3 (Homo sapiens) (P36888 whole entry): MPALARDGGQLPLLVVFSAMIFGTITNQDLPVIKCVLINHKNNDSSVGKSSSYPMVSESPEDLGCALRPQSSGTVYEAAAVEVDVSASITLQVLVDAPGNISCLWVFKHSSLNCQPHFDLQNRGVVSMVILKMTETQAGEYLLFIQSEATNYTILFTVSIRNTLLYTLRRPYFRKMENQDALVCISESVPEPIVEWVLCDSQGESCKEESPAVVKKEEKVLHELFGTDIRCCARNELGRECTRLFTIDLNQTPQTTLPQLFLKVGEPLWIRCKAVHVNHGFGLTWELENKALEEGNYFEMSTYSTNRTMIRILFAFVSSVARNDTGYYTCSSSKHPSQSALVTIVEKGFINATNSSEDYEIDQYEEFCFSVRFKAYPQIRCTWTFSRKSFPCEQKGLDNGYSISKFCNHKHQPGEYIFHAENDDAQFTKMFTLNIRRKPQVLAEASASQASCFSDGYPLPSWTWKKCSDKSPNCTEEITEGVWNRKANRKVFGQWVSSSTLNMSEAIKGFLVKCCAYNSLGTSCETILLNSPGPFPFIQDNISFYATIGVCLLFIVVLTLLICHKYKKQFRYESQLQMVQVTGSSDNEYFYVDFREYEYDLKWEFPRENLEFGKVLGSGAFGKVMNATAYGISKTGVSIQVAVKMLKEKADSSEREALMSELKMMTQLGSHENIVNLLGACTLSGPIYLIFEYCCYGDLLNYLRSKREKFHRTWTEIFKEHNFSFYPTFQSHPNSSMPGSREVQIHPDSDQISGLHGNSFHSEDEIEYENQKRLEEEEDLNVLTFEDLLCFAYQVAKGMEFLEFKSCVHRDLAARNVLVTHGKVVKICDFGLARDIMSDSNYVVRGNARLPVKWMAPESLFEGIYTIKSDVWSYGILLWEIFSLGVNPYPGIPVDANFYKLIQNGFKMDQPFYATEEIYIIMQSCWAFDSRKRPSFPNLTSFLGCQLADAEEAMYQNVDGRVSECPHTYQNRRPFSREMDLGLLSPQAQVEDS
# Sequence of Tyrosine-protein kinase JAK2 (Homo sapiens) (O60674 whole entry): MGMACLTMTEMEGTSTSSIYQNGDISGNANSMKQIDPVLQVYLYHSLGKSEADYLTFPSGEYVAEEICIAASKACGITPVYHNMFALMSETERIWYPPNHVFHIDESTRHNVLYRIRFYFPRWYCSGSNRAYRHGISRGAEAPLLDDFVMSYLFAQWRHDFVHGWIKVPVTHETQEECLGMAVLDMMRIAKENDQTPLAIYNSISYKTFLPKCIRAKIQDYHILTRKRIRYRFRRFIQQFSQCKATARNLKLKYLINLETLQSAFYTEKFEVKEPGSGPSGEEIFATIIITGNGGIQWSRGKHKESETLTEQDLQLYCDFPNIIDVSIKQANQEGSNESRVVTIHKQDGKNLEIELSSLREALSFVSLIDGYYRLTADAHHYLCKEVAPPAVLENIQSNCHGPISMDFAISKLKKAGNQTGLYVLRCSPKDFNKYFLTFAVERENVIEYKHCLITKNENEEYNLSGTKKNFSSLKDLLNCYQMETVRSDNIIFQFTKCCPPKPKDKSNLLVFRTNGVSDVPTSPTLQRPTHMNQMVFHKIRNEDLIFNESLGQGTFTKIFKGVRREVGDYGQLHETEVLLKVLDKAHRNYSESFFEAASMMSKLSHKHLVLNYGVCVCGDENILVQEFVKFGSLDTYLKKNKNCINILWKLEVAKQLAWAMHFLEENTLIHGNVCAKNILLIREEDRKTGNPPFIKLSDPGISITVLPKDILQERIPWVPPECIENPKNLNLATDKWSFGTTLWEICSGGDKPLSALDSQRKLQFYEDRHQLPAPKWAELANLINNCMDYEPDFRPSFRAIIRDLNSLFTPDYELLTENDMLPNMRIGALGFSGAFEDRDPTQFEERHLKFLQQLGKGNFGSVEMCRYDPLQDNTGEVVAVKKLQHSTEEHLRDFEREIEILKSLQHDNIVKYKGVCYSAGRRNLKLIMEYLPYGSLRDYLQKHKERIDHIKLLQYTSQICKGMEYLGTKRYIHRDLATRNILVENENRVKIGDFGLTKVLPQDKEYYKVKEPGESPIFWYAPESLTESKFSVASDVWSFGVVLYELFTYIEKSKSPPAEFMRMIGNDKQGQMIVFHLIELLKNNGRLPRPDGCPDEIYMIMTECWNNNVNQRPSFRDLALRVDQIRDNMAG
# Sequence of Tyrosine-protein kinase Lyn (Homo sapiens) (P07948 2-512 limits assumed): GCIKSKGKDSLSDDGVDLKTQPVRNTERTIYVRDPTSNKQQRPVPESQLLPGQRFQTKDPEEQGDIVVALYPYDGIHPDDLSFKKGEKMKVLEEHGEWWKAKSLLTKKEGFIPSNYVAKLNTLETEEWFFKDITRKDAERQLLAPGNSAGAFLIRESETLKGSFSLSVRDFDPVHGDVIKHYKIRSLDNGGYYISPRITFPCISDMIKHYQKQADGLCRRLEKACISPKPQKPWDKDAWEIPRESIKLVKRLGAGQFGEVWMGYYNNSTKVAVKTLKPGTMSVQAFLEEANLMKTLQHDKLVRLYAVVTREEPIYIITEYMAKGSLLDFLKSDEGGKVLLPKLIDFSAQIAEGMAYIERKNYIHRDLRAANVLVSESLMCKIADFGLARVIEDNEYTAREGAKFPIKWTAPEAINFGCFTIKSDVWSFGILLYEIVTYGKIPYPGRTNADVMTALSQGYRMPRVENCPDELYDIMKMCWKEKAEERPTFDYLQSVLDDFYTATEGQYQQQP
# Sequence of Mitogen-activated protein kinase 1 (Homo sapiens) (P28482 whole entry): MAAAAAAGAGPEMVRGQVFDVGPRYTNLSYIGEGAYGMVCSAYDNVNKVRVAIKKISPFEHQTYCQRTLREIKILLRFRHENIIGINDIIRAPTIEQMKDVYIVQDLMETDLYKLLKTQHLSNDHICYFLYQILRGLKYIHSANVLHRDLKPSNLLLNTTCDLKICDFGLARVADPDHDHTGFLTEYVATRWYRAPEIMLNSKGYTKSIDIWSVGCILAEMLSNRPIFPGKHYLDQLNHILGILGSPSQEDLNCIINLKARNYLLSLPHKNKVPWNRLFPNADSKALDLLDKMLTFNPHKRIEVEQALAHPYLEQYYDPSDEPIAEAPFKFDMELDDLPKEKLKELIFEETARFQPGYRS
compound,measurement,setting,value
Cc1ccc(NC(=O)c2ccc(C(F)(F)F)nc2)cc1NC(=O)c1cnc2ccccn12,inhibition,[1],79%
same,inhibition,[2],41%
same,inhibition,[3],39%
same,inhibition,[4],60%
same,inhibition,[5],0%
same,inhibition,[6],0%
same,inhibition,[7],0%
same,inhibition,[8],75%
same,inhibition,[9],93%
same,inhibition,[10],30%
same,inhibition,Homo sapiens,42%
same,inhibition,[11],16%
same,inhibition,[12],Active
same,inhibition,[13],35%
same,inhibition,[14],58%
same,inhibition,[15],3%
same,inhibition,[16],4%
same,inhibition,[17],87%
same,inhibition,[18],97%
